In patent US10869474B2, “Fungicidal compositions” (UNIVERSITÄT BASEL, priority 2016, dated 2020):
Converted amounts (≈) assume the structure as drawn. Read-outs that look alike come from different tables or passages of the source.

Experiments:
Plasmopara viticola [1] = experiment: In vitro bioassay in 96-well plates, minimal inhibitory concentration (MIC100); format: cell-based; settings: for MIC: Plasmopara viticola, read-out: Minimal inhibitory concentration (MIC100) against P. viticola
Venturia inaequalis [2] = experiment: as above; format: cell-based; settings: for MIC: Venturia inaequalis, 48 h, read-out: Minimal inhibitory concentration (MIC100) against V. inaequalis
Phytophthora infestans = experiment: microbe, parasite or virus in culture; format: cell-based; settings: complete inhibition of germination, assessed after one day, Table 2 values are means of N independent experiments; for Minimal inhibitory concentration (MIC100) against P. infestans: in vitro; for MIC: Phytophthora infestans, 24 h, read-out: Minimal inhibitory concentration (MIC100) against P. infestans, in vitro
Plasmopara viticola [3] = experiment: Plant-pathogen bioassay on grapevine seedlings under semi-controlled conditions; format: in vivo; settings: grapevine cv. Chasselas seedlings, n = 6, Table 5
Venturia inaequalis [4] = experiment: Plant-pathogen bioassay on apple seedlings under semi-controlled conditions; format: in vivo; settings: apple cv. Jonagold seedlings, n = 6, Table 7
[5] = in vitro, complete inhibition of zoospore activity, assessed after 2-3 h, Table 2 values are means of N independent experiments
[6] = in vitro, complete inhibition of germination, assessed after two days, Table 2 values are means of N independent experiments

Compound	MIC (Plasmopara viticola [1]; [5]) [µg/mL]	Minimal inhibitory concentration (MIC100) against P. viticola (Plasmopara viticola [1]; [5]) [µg/mL]	Minimal inhibitory concentration (MIC100) against V. inaequalis (Venturia inaequalis [2]; [6]) [µg/mL]	Minimal inhibitory concentration (MIC100) against P. infestans (Phytophthora infestans) [µg/mL]	Efficacy against P. viticola, mean ± SD (Plasmopara viticola [3]; pure compound 0.25 mg ml^−1) [%]	Efficacy against P. viticola, mean ± SD (Plasmopara viticola [3]; pure compound 0.5 mg ml^−1) [%]	Efficacy against P. viticola, mean ± SD (Plasmopara viticola [3]; pure compound 1 mg ml^−1) [%]	Efficacy Mean ± SD (Venturia inaequalis [4]; CB 0.1 mg ml^−1) [%]	Efficacy Mean ± SD (Venturia inaequalis [4]; CB 1 mg ml^−1) [%]	Efficacy Mean ± SD (Venturia inaequalis [4]; CB 1 mg ml^−1, listed as coniferyl benzoate) [%]	MIC (Venturia inaequalis [2]; [6]) [µg/mL]	MIC (Phytophthora infestans) [µg/mL]	MIC (Plasmopara viticola [1]) [µg/mL]	MIC (Venturia inaequalis [2]) [µg/mL]
COc1cc(/C=C/COC(=O)c2ccccc2)ccc1O [CB, coniferyl benzoate]	8 to 32 (≈ 28.1 to 113 µM)	12 (≈ 42.2 µM)	35 (≈ 123 µM)	21 (≈ 73.9 µM)	85 ± 14	77 ± 50	99 ± 1	4 ± 53	69 ± 12	70				
O=C(/C=C/c1ccccc1)OC/C=C/c1ccc(O)cc1 [CC, p-coumaryl cinnamate]		38 (≈ 136 µM)	32 (≈ 114 µM)	25 (≈ 89.2 µM)	80 ± 16	95 ± 6	98 ± 1				16 to 64 (≈ 57.1 to 228 µM)	16 to 64 (≈ 57.1 to 228 µM)		
O=C(/C=C/c1ccccc1)OCc1ccccc1 [BC, benzyl cinnamate]												500 (≈ 2100 µM)	8 (≈ 33.6 µM)	> 500
